Assay results: PubChem BioAssay AID256 (DTP/NCI, 2004)
Values joined by “and” are separate entries in the source; they are usually repeats but may differ in a detail not shown here. Equal values may be shown once. Inconclusive results and toxic doses are left out.

Test system: CD2F1 mice, L1210 leukemia ip, survival T/C
Assay: NCI In Vivo Anticancer Drug Screen. Data for tumor model L1210 Leukemia (intraperitoneal) in CD2F1 (CDF1) mice
Conditions: higher = longer survival
In short: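 In this screen, transplantable tumors were grown in mice given either the compound or its vehicle. Results were expressed as the treated measurement relative to the control measurement.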

[1] = endpoint: mean survival time, dose: 100.0 mg/kg/injection, schedule: Q01DX001 (ip), vehicle: saline
[2] = endpoint: mean survival time, dose: 100.0 mg/kg/injection, schedule: Q01DX009 (ip), vehicle: saline with Tween-80
[3] = endpoint: mean survival time, dose: 100.0 mg/kg/injection, schedule: Q04DX003 (ip), vehicle: saline with Tween-80
[4] = endpoint: mean survival time, dose: 200.0 mg/kg/injection, schedule: Q01DX001 (ip), vehicle: saline
[5] = endpoint: mean survival time, dose: 200.0 mg/kg/injection, schedule: Q01DX009 (ip), vehicle: saline with Tween-80
[6] = endpoint: mean survival time, dose: 200.0 mg/kg/injection, schedule: Q04DX003 (ip), vehicle: saline with Tween-80
[7] = endpoint: mean survival time, dose: 400.0 mg/kg/injection, schedule: Q01DX001 (ip), vehicle: saline
[8] = endpoint: mean survival time, dose: 400.0 mg/kg/injection, schedule: Q04DX003 (ip), vehicle: saline with Tween-80
[9] = endpoint: mean survival time, dose: 100.0 mg/kg/injection, schedule: Q04DX003 (ip), vehicle: saline
[10] = endpoint: mean survival time, dose: 200.0 mg/kg/injection, schedule: Q04DX003 (ip), vehicle: saline
[11] = endpoint: mean survival time, dose: 400.0 mg/kg/injection, schedule: Q04DX003 (ip), vehicle: saline
[12] = endpoint: mean survival time, dose: 100.0 mg/kg/injection, schedule: Q04DX002 (ip), vehicle: saline with Tween-80
[13] = endpoint: mean survival time, dose: 75.0 mg/kg/injection, schedule: Q01DX001 (ip), vehicle: saline
[14] = endpoint: mean survival time, dose: 150.0 mg/kg/injection, schedule: Q01DX001 (ip), vehicle: saline

SMILES: CC(CCCC#N)[N+](=O)[O-] (centres undefined)
- T/C (endpoint: mean survival time, dose: 5.0 mg/kg/injection, schedule: Q01DX001 (ip), vehicle: saline): 102 % of control
- T/C (endpoint: mean survival time, dose: 10.0 mg/kg/injection, schedule: Q01DX001 (ip), vehicle: saline): 96 % of control
- T/C (endpoint: mean survival time, dose: 20.0 mg/kg/injection, schedule: Q01DX001 (ip), vehicle: saline): 102 % of control
- T/C (endpoint: mean survival time, dose: 40.0 mg/kg/injection, schedule: Q01DX001 (ip), vehicle: saline): 102 % of control
- T/C [1]: 98 % of control

SMILES: Cc1c(NC(=O)Nc2cc([N+](=O)[O-])ccc2Cl)c(=O)n(-c2ccccc2)n1C
- T/C [1]: 96 % of control
- T/C [2]: 89 % of control and 98 % of control
- T/C (endpoint: mean survival time, dose: 100.0 mg/kg/injection, schedule: Q04DX002 (ip), vehicle: saline): 93 % of control and 107 % of control
- T/C [3]: 104 % of control
- T/C [4]: 86 % of control
- T/C [5]: 96 % of control and 102 % of control
- T/C (endpoint: mean survival time, dose: 200.0 mg/kg/injection, schedule: Q04DX002 (ip), vehicle: saline): 95 % of control and 96 % of control
- T/C [6]: 104 % of control
- T/C [7]: 86 % of control
- T/C (endpoint: mean survival time, dose: 400.0 mg/kg/injection, schedule: Q01DX009 (ip), vehicle: saline with Tween-80): 96 % of control
- T/C (endpoint: mean survival time, dose: 400.0 mg/kg/injection, schedule: Q04DX002 (ip), vehicle: saline): 91 % of control and 107 % of control
- T/C [8]: 95 % of control

SMILES: CCOC(=O)c1cc(-c2ccc(Cl)cc2)nc2c1ccc1ccccc12
- T/C [1]: 100 % of control
- T/C [4]: 96 % of control
- T/C [7]: 108 % of control

SMILES: O=C(O)/C=C\C(=O)Nc1ccccc1NC(=O)/C=C/C(=O)O
- T/C [9]: 110 % of control
- T/C [10]: 99 % of control
- T/C [11]: 101 % of control

SMILES: CC(=O)N(C)c1ccc(NC(=O)Nc2ccc(C)c(C)c2)cc1
- T/C (endpoint: mean survival time, dose: 50.0 mg/kg/injection, schedule: Q01DX009 (ip), vehicle: saline with Tween-80): 91 % of control
- T/C [2]: 91 % of control
- T/C [5]: 88 % of control

SMILES: CC(=O)NCCSSCCCCS(=O)O
- T/C (endpoint: median survival time, dose: 25.0 mg/kg/injection, schedule: Q01DX009 (ip), vehicle: suspension in saline): 93 % of control
- T/C (endpoint: median survival time, dose: 50.0 mg/kg/injection, schedule: Q01DX009 (ip), vehicle: suspension in saline): 100 % of control
- T/C (endpoint: median survival time, dose: 100.0 mg/kg/injection, schedule: Q01DX009 (ip), vehicle: suspension in saline): 96 % of control
- T/C (endpoint: median survival time, dose: 200.0 mg/kg/injection, schedule: Q01DX009 (ip), vehicle: suspension in saline): 100 % of control
- T/C (endpoint: median survival time, dose: 400.0 mg/kg/injection, schedule: Q01DX009 (ip), vehicle: suspension in saline): 114 % of control

SMILES: CN(C)CC(O)c1ccc(O)c(O)c1 (centres undefined)
- T/C [9]: 115 % of control
- T/C [10]: 115 % of control
- T/C [11]: 103 % of control

SMILES: CCCCCOCC
- T/C [12]: 102 % of control
- T/C (endpoint: mean survival time, dose: 200.0 mg/kg/injection, schedule: Q04DX002 (ip), vehicle: saline with Tween-80): 98 % of control
- T/C (endpoint: mean survival time, dose: 400.0 mg/kg/injection, schedule: Q04DX002 (ip), vehicle: saline with Tween-80): 98 % of control

SMILES: OCCOC1CCC(O)C2CCCCC12 (centres undefined)
- T/C (endpoint: mean survival time, dose: 100.0 mg/kg/injection, schedule: Q01DX001 (ip), vehicle: saline sonified): 103 % of control
- T/C (endpoint: mean survival time, dose: 200.0 mg/kg/injection, schedule: Q01DX001 (ip), vehicle: saline sonified): 98 % of control
- T/C (endpoint: mean survival time, dose: 400.0 mg/kg/injection, schedule: Q01DX001 (ip), vehicle: saline sonified): 109 % of control

SMILES: Nc1nc(N)c2cc(CNc3ccc(C(=O)NC(CC(=O)O)CC(=O)O)cc3)ccc2n1
- T/C (endpoint: mean survival time, dose: 25.0 mg/kg/injection, schedule: Q01DX009 (ip), vehicle: Klucel (hydroxypropylcellulose) (HPC)): 160 % of control
- T/C (endpoint: mean survival time, dose: 50.0 mg/kg/injection, schedule: Q01DX009 (ip), vehicle: Klucel (hydroxypropylcellulose) (HPC)): 162 % of control and 206 % of control
- T/C (endpoint: mean survival time, dose: 200.0 mg/kg/injection, schedule: Q01DX009 (ip), vehicle: Klucel (hydroxypropylcellulose) (HPC)): 114 % of control and 103 % of control
- T/C (endpoint: mean survival time, dose: 400.0 mg/kg/injection, schedule: Q01DX009 (ip), vehicle: Klucel (hydroxypropylcellulose) (HPC)): 96 % of control and 98 % of control

SMILES: O=S(=O)(CS(=O)(=O)Nc1ccccc1)Nc1ccccc1
- T/C [3]: 109 % of control

SMILES: C[Si](C)(C)C1([Si](C)(C)C)SCCCS1
- T/C (endpoint: mean survival time, dose: 50.0 mg/kg/injection, schedule: Q01DX009 (ip), vehicle: other): 105 % of control
- T/C (endpoint: mean survival time, dose: 100.0 mg/kg/injection, schedule: Q01DX009 (ip), vehicle: other): 105 % of control
- T/C (endpoint: mean survival time, dose: 200.0 mg/kg/injection, schedule: Q01DX009 (ip), vehicle: other): 102 % of control

SMILES: O=C(C[n+]1cccc(C(=O)c2ccccc2)c1)c1ccccc1
- T/C (endpoint: mean survival time, dose: 9.4 mg/kg/injection, schedule: Q01DX009 (ip), vehicle: saline): 94 % of control
- T/C (endpoint: mean survival time, dose: 18.8 mg/kg/injection, schedule: Q01DX009 (ip), vehicle: saline): 94 % of control
- T/C (endpoint: mean survival time, dose: 37.5 mg/kg/injection, schedule: Q01DX009 (ip), vehicle: saline): 93 % of control
- T/C (endpoint: mean survival time, dose: 37.5 mg/kg/injection, schedule: Q04DX003 (ip), vehicle: saline): 96 % of control
- T/C [13]: 100 % of control
- T/C (endpoint: mean survival time, dose: 75.0 mg/kg/injection, schedule: Q04DX003 (ip), vehicle: saline): 94 % of control
- T/C [14]: 97 % of control

SMILES: COC1CCC2=C(C1)C(=O)CC1c3ccccc3CN21 (centres undefined)
- T/C [3]: 97 % of control

SMILES: Cc1ccc(S(=O)(=O)OC2CCCCCCCCCCC2=O)cc1 (centres undefined)
- T/C (endpoint: mean survival time, dose: 50.0 mg/kg/injection, schedule: Q04DX003 (ip), vehicle: other): 97 % of control
- T/C (endpoint: mean survival time, dose: 100.0 mg/kg/injection, schedule: Q04DX003 (ip), vehicle: other): 93 % of control and 95 % of control
- T/C (endpoint: mean survival time, dose: 200.0 mg/kg/injection, schedule: Q04DX003 (ip), vehicle: other): 93 % of control
- T/C (endpoint: mean survival time, dose: 400.0 mg/kg/injection, schedule: Q04DX003 (ip), vehicle: other): 95 % of control

SMILES: CC(CNC1CCCCC1)OC(=O)c1ccc(N(C)C)cc1 (centres undefined)
- T/C [13]: 99 % of control
- T/C [14]: 100 % of control

SMILES: N#CC12C(=N)CCC1C1CC2C2C3C=CC(C3)C12 (centres undefined)
- T/C [3]: 96 % of control
- T/C [6]: 96 % of control
- T/C [8]: 95 % of control

SMILES: O=C(O/N=C(\CN1CCCC1)c1ccc(Cl)cc1)c1ccccc1
- T/C (endpoint: mean survival time, dose: 100.0 mg/kg/injection, schedule: Q01DX001 (ip), vehicle: Klucel (hydroxypropylcellulose) (HPC)): 95 % of control
- T/C (endpoint: mean survival time, dose: 200.0 mg/kg/injection, schedule: Q01DX001 (ip), vehicle: Klucel (hydroxypropylcellulose) (HPC)): 95 % of control
- T/C (endpoint: mean survival time, dose: 400.0 mg/kg/injection, schedule: Q01DX001 (ip), vehicle: Klucel (hydroxypropylcellulose) (HPC)): 93 % of control

SMILES: COc1ccccc1N1C(=O)CSC1=S
- T/C [3]: 96 % of control
- T/C [6]: 93 % of control
- T/C [8]: 106 % of control

SMILES: Cc1nc(N)c2ncn(C3OC(CO)C(O)C3O)c2n1 (centres undefined)
- T/C [12]: 115 % of control

SMILES: COc1cccc2c1C(=O)c1c(O)c3c(c(O)c1C2=O)CC(O)(C(C)=O)CC3OC1CC(N)C(O)C(C)O1 (centres undefined)
- T/C (endpoint: mean survival time, dose: 0.25 mg/kg/injection, schedule: Q01DX001 (ip), vehicle: saline): 112 % of control
- T/C (endpoint: mean survival time, dose: 0.5 mg/kg/injection, schedule: Q01DX001 (ip), vehicle: saline): 109 % of control
- T/C (endpoint: mean survival time, dose: 0.63 mg/kg/injection, schedule: Q01DX009 (ip), vehicle: water): 105 % of control
- T/C (endpoint: mean survival time, dose: 1.0 mg/kg/injection, schedule: Q01DX001 (ip), vehicle: saline): 115 % of control
- T/C (endpoint: mean survival time, dose: 1.25 mg/kg/injection, schedule: Q01DX009 (ip), vehicle: water): 108 % of control
- T/C (endpoint: mean survival time, dose: 2.0 mg/kg/injection, schedule: Q01DX001 (ip), vehicle: saline): 121 % of control
- T/C (endpoint: mean survival time, dose: 2.5 mg/kg/injection, schedule: Q01DX009 (ip), vehicle: water): 115 % of control and 105 % of control
- T/C (endpoint: mean survival time, dose: 5.0 mg/kg/injection, schedule: Q01DX009 (ip), vehicle: water): 105 % of control
- T/C (endpoint: mean survival time, dose: 10.0 mg/kg/injection, schedule: Q01DX009 (ip), vehicle: water): 117 % of control
- T/C (endpoint: mean survival time, dose: 20.0 mg/kg/injection, schedule: Q01DX009 (ip), vehicle: water): 117 % of control and 105 % of control
- T/C (endpoint: mean survival time, dose: 40.0 mg/kg/injection, schedule: Q01DX009 (ip), vehicle: water): 117 % of control
- T/C (endpoint: mean survival time, dose: 80.0 mg/kg/injection, schedule: Q01DX009 (ip), vehicle: water): 105 % of control
